US20260042801A1, “COMPOSITIONS AND METHODS FOR DYE-BOUND CYCLIZED PEPTIDES FOR MEDICAL USE” (The Texas A&M University System, priority 2022, published 2026)

Key:
TrkB = biological target: T1, TrkB (Homo sapiens, UniProt Q16620); test: Cell-associated fluorescence saturation binding, TrkB-HEK293 cells; conditions: 2.5 h, with and without 0.6 nM BDNF
T1 construct: expressed in transfected cells; host or cells: HEK293 (TrkB-HEK293)
Method: (§1) FIG. 2: 5c(i) binds to TrkB and TrkC receptors. Transfected cell lines that are Trk positive cells (TrkB-HEK293 and TrkC-NIH/3T3) and non-transfected cell lines that are Trk negative cells (HEK293 and NIH/3T3) were seeded approximately 2,000 cells/well in a 96-well plate and incubated for 24 hours. The cells were treated with a serial dilution of compound (0, 10, 25, 50, 100, 200, 500, and 1000 nM) in serum-free media (SFM) with and without A) 0.6 nM of BDNF (TrkB-HEK293 and HEK293) and B) 0.2 nM of NT-3 (TrkC-NIH/3T3 and NIH/3T3) for 2.5 h. After that, the cells were washed with PBS once to remove unbound compounds and dissolved in 1% (w/v) aqueous sodium dodecyl sulfate. Cell-associated fluorescence was then determined by measuring the emission of the resulting solution upon λex (540/25 nm) and λem (620/40 nm) using Agilent BioTek Synergy H4 Hybrid Microplate Reader. Kd was calculated by GraphPad Prism 9 using Binding saturation (One site—Specific binding).
(§2) Transfected cell lines that are Trk positive cells (TrkA-HeLa, TrkB-HEK293, and TrkC-NIH/3T3) and non-transfected cell lines that are Trk negative cells (HeLa, HEK293, and NIH/3T3) were seeded at 2,000 cells/well in a 96-well plate (0.32 cm^2 growth area) and incubated inside a 5% CO2 incubator at 37° C. for 24 hours. […] The dissociation constant (Kd) was calculated using binding saturation (One site—Specific binding).

TrkC = biological target: T2, TrkC (Homo sapiens, UniProt Q16288); test: Cell-associated fluorescence saturation binding, TrkC-NIH/3T3 cells; conditions: 2.5 h, with and without 0.2 nM NT-3
T2 construct: expressed in transfected cells; host or cells: NIH/3T3 (TrkC-NIH/3T3)
T2 sequence (Q16288 32-839, species assumed): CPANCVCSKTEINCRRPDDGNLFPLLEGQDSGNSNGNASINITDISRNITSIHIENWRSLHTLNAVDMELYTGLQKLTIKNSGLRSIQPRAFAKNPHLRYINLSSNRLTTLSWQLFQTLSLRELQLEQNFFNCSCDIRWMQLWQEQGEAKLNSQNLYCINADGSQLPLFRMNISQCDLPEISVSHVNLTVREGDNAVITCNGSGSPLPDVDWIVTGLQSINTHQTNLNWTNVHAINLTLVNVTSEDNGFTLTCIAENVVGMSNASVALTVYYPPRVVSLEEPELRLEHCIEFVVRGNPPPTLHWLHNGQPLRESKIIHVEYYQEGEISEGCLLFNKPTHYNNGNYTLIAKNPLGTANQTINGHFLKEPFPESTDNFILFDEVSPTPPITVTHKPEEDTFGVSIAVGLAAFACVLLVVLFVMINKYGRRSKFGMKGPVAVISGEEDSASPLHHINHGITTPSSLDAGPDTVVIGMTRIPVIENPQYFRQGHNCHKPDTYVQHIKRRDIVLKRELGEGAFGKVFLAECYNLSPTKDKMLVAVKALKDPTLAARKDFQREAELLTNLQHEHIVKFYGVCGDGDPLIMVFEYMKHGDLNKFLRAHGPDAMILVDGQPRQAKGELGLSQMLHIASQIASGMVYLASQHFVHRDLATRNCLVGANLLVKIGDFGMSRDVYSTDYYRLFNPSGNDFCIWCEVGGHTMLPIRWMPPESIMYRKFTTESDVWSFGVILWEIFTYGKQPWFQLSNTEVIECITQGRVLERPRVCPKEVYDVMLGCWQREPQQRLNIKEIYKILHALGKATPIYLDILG
Method: as §1, §2

[1] = system: adult cortical neurons on astrocytes; test: Neurons plated on 5c(i)-pretreated astrocytes; type: cell-based, mouse; conditions: astrocytes cultured with 5c(i) 2 days, 5c(i) removed, neurons 2DIV
Method: FIGS. 4A-4D: 5c(i) induces Synapsin I production and reduces C3 and GSK-3s expression from astrocytes promoting neuron survival and neurite growth. Primary adult cortical astrocytes from 6-month-old male mice were incubated with 5 μM 5c(i) for 3 days. Graph represents mean±SEM of percent change in fluorescent intensity (Synapsin I and C3) or chemiluminescence (GSK-3β) relative to Vehicle (4A and 4D). Images represent the 4B) Vehicle and 4C) 5 μM 5c(i) treated groups stained with Synapsin I and DAPI. D) Cortical astrocytes from 6-month-old male mice were plated and treated with 5c(i) or Vehicle for 2 days. Cells were then washed and cortical neurons from 6-month-old male mice were added on top of the astrocytes. […] Scale bar=50 μm.
To determine if 5c(i) can modulate astrocytes, adult astrocytes from 6-month-old male mice were treated with 5c(i) for 3 days and stained with Synapsin I and C3 to measure changes in fluorescent intensity or western blot was conducted on the cell lysate to assess changes in GSK-3β expression (FIG. 4). […] To determine if 5c(i) treated astrocytes can directly benefit neuronal recovery, astrocytes were cultured with 5c(i) for 2 days before removing 5c(i) from the culture and plating adult neurons on top of the astrocytes for 2DIV, resulting in increased neuron survival and neurite growth. […]

[2] = Blood-brain and blood-spinal cord barrier penetration after IP administration; type: in vivo; conditions: uninjured mouse, IP 60 mg/kg, 1 hour, intrinsic fluorescence
Method: FIG. 6: 5c(i) penetrates the blood-brain and -spinal cord barriers. 4-month-old uninjured female mouse was IP administered 60 mg/kg 5c(i). The mouse was euthanized 1 hour after 5c(i) administration and perfused with PFA. The spinal cord was dissected and sectioned sagittal at 25 μm and stained with NeuN and DAPI. The brain was dissected and sectioned coronal at 50 μm and stained with GFAP and DAPI. 5c(i) was identified through its intrinsic fluorescence. Scale bar=100 μm.
This is highly significant as most drugs cannot penetrate the central nervous system (CNS), resulting in very costly late-stage failures in CNS drug development^94. 5c(i) therefore in specific embodiments can cross the BBB and target the brain, such as through IP administration, for indications relating to brain function, such as AD and stroke. 5c(i) has even higher potential for penetrating the CNS after SCI when permeability is increased^95-97.

T1 sequence (Q16620 32-822, species assumed): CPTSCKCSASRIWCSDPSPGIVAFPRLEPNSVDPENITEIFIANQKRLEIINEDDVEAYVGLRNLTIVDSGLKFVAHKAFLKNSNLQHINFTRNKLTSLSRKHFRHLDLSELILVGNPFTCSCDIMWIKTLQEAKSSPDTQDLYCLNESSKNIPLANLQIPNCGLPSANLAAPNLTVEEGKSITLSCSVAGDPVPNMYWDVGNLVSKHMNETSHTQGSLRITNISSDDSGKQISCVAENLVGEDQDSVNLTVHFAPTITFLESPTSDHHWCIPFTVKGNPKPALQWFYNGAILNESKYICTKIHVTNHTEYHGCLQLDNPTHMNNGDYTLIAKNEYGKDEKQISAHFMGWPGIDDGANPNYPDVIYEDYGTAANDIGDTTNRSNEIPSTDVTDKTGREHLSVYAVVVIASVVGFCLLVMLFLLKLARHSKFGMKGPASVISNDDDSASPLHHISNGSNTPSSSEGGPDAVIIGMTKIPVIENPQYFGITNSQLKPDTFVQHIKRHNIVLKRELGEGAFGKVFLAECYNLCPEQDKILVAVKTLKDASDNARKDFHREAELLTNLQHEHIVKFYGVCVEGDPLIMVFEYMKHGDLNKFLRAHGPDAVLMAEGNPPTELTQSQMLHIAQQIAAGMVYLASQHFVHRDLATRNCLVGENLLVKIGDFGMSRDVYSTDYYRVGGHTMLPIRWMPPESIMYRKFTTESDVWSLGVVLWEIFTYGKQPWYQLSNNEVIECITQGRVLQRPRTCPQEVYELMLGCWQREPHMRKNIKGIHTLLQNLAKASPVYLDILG

C-DIRG-C BODIPY® (fluorescent dye) [5c(i)]
affinity for TrkB (Kd) (TrkB): low nanomolar affinity
affinity for TrkC (Kd) (TrkC): low nanomolar affinity
neurite growth on pretreated astrocytes [1]: increased
neuron survival on pretreated astrocytes [1]: increased
penetration of blood-brain barrier (BBB) [2]: easily penetrate
penetration of blood-spinal cord barrier (BSCB) [2]: easily penetrate
